Patent US20180193350A1, “TREATMENT OF NUT MIDLINE CARCINOMA” (Tensha Therapeutics, Inc., priority 2015, published 2018)

Tests used:
[1] = test system: bromodomains of the BET family; details: Bres et al. 2008; cited from earlier work
[2] = test system: lactate dehydrogenase (LDH); assay: LDH levels in patients treated with TEN-010; type: in vivo, human; details: non-NMC patient 002-021 (FIG. 2B), despite significant rise in CD11b levels
From the text: Patients aged 18 years or older with histologically confirmed advanced solid tumors with progressive disease requiring therapy were enrolled in the study. In particular, patients with histologically confirmed advanced solid malignancy with progressive disease, NMC, or advanced aggressive diffuse large B cell lymphoma (DLBCL) were enrolled in the study. Patients with hemotologic malignancies were not enrolled in the study.
TEN-010 was formulated as a sterile, preserved isotonic solution for subcutaneous (SC) administration. A dose of 0.45 mg/kg was administered on Days 1 through 21 (“ON segment”) of each cycle without interruption, followed by a 7-day dose-free interval (“OFF segment”) in a 28-day treatment cycle. Injections were rotated amongst several sites including bilateral upper arms and thighs and mid and lower abdomen and buttocks.
LDH levels were measured using standard protocols, using a chemistry analyzer, e.g., Beckman Coulter. See, e.g., Lactate OSR6193 procedure published March 2012 (webcache.googleuserconent.com/search?q=cache:iyYi7vCetH4J:https://www.beckmancoulter.com/wsrportal/techdocs%3Fdocname%3D/cis/BAOSR6x93%2525%2525/EN_LACTATE_BAOSR6x93_US.doc+&cd=2&hl=en&ct=clnk&gl=us), incorporated by reference in its entirety.

[3] = test system: CD11b on CD14+ monocytes; assay: CD11b expression levels on CD14+ monocytes in patients treated with TEN-010 (flow cytometry, MESF); type: in vivo, human
From the text: Patients aged 18 years or older with histologically confirmed advanced solid tumors with progressive disease requiring therapy were enrolled in the study. In particular, patients with histologically confirmed advanced solid malignancy with progressive disease, NMC, or advanced aggressive diffuse large B cell lymphoma (DLBCL) were enrolled in the study. Patients with hemotologic malignancies were not enrolled in the study. TEN-010 was formulated as a sterile, preserved isotonic solution for subcutaneous (SC) administration. A dose of 0.45 mg/kg was administered on Days 1 through 21 (“ON segment”) of each cycle without interruption, followed by a 7-day dose-free interval (“OFF segment”) in a 28-day treatment cycle. Injections were rotated amongst several sites including bilateral upper arms and thighs and mid and lower abdomen and buttocks. Whole blood specimens were collected at specified time points (e.g., see FIG. 1) in sodium heparin vacutainers. Briefly, two 12×75 mm test tubes per donor were labeled with specimen ID and appropriate cocktail name (see Table 2 below). 100 μl of sodium heparin anticoagulated whole blood was pipetted into the test tubes. The appropriate titrated volume of antibody cocktails was pipetted into the correspondingly labeled tubes. The appropriate titrated amount of CD14 PerCP, was added to all tubes to identify CD14 positive monocytes. The tubes were vortexed and were allowed to incubate for 30 minutes at room temperature in the dark. The red blood cells were lysed by adding 4 ml of an ammonium chloride-based whole blood lysing reagent to each tube. The tubes were capped and inverted to mix well prior to incubating in the dark at room temperature for 5 minutes. After the incubation, the tubes were centrifuged at 400 RCF for 5 minutes, the supernatant decanted and the tubes rack-raked to disperse cell pellet. The cells were washed with 2 ml of PBS with 1% BSA and centrifuged. To detect biotin conjugated CD45 RO antibody, the appropriate titrated amount of SA-BV605 (streptavidin (SA) conjugated to brilliant violet (BV) 605) was added to each tube and tubes were vortexed. After a 20 minute incubation in the dark at room temperature, the cells were washed with 2 ml of PBS with 1% BSA and centrifuged. The supernatant was decanted and the cells were rack-raked to disperse the cell pellet. Each tube received 500 μl of 1% paraformaldehyde and stored at 2-8 C until acquisition on the day of preparation. The tubes were acquired on a Becton Dickinson (BD) FACSCanto™ II flow cytometer with appropriate instrument settings, acquiring approximately 250,000 total events per tube. All analyses for flow cytometry were performed on WinList 7.0 (Verity Software House, Topsham, Me.) with a direct data exchange link to Microsoft® Excel 2003 or equivalent. For FIG. 1, baseline value (pre-dose at cycle 1, day 1, i.e., C1D1) was set at an arbitrary MESF value (e.g., 100) for each patient; all subsequent values obtained from the study were normalized to the baseline value. For FIG. 2, unnormalized MESF values are shown.

Structure (SMILES)	binding to bromodomains of the BET family [1]	LDH levels [2]	CD11b levels following the off-drug segment (C2D1) ([3]; NMC patient 004-001)	effectiveness by C2D1 ([3]; NMC patient 004-001, suggested by CD11b increase, patient died shortly thereafter)	decrease of CD11b levels relative to baseline value ([3]; all 6 patients, 0.45 mg/kg SC Days 1-21 of 28-day cycle, by C1D15 vs pre-dose C1D1)	CD11b levels at start of second cycle (C2D1) ([3]; all patients except NMC patient 004-001, after 21 days on-drug and 7 days off-drug)	CD11b levels ([3]; non-NMC patient 002-021 (FIG. 2B))
Cc1sc2c(c1C)C(c1ccc(Cl)cc1)=N[C@@H](CC(=O)OC(C)(C)C)c1nnc(C)n1-2 [JQ1]	specifically binds	–	–	–	–	–	–
Cc1sc2c(c1C)C(c1ccc(Cl)cc1)=N[C@@H](CC(=O)NCCCN1CCN(C)CC1)c1nnc(C)n1-2 [TEN-010]	–	remained constant	dramatically increased	not effective	at least 50%	held steady	significant rise
